Results on 13 compounds are retold here after patent US9822068B2, “Inhibitors of fatty acid amide hydrolase (FAAH) enzyme with improved oral bioavailability and their use as medicaments” (THE REGENTS OF THE UNIVERSITY OF CALIFORNIA, priority 2014, dated 2017).

In general, IC50 refers to the midpoint of a concentration-inhibition curve. The term bioavailability denotes dose-corrected exposure relative to a reference, in per cent. As a reminder, the kinetic solubility is solubility judged after dilution from a stock solution rather than from solid.

In series [1] the target is human FAAH-1 (Homo sapiens (Human), UniProt O00519). Nature of the series: In vitro human FAAH fluorescent assay. It counts as biochemical. To be noted: human FAAH-1 membrane preparation from HEK-293, 50 min pre-incubation at 37° C.; read-out: h-FAAH IC50. As for the experimental part:
In Vitro Human FAAH Fluorescent Assay
Human recombinant FAAH was obtained from a HEK-293 cell line stably overexpressing human FAAH-1 enzyme. Cells were grown in Dulbecco's Modified Eagle Medium (DMEM) medium containing 10% FBS, 1% pen/strep, 1% glutamine and 500 μg/mL G418. To obtain membrane preparation cells were scraped off with cold PBS and collected by centrifugation (500×g, 10 min, 4° C.); the cell pellet was re-suspended in 20 mM Tris-HCl pH 7.4, 0.32M sucrose, disrupted by sonication (10 pulses, 5 times) and centrifuged (800×g, 15 min, 4° C.); the collected supernatant was centrifuged at 105,000×g for 1 h at 4° C. and the pellet was re-suspended in PBS.
The fluorescent assay to measure FAAH activity was performed in 96 wells black plates: 2.5 μg of human FAAH-1 membrane preparation were pre-incubated for 50 min at 37° C., in 180 µL of assay buffer (50 mM TrisHCl pH 7.4, 0.05% Fatty acid-free-BSA) with 10 μL of inhibitor (at appropriate concentration in DMSO) or 10 μL DMSO to measure FAAH total activity. The background (no activity) samples were prepared using 180 μL of assay buffer without human FAAH-1 and 10 μL of DMSO. The reaction was then started by the addition of 10 μL of a 40 μM substrate solution (N. 10005098, Cayman Chemical) dissolved in ethanol, and used at a final concentration of 2 μM. The reaction was carried out for 30 min at 37° C. and fluorescence was measured with a Tecan Infinite M200 nanoquant plate reader (excitation wavelength 350 nm/emission wavelength 460 nm).
(§1) Concentrations causing half-maximal inhibition of FAAH, IC50 values, were determined by non-linear regression analysis of the Log [concentration]/response curves generated with mean replicate values using a four parameter Hill equation curve fitting with GraphPad Prism 5 (GraphPad Software Inc., CA—USA).

Series [2] has as its target Rat FAAH (Rattus norvegicus (Rat), UniProt P97612). The series can be described thus: In vitro rat FAAH radiometric assay. It counts as biochemical. The conditions noted are these: rat brain homogenate, 10 min pre-incubation at 37° C.; read-out: r-FAAH IC50. Here is the method:
In Vitro Rat FAAH Radiometric Assay
Rat FAAH was prepared from male Sprague Dawley rat brains, homogenized in a potter in 20 mM of Tris HCl pH 7.4, 0.32 M sucrose.
The radiometric assay used to measure FAAH activity was performed in Eppendorf tubes: 50 μg of total rat brain homogenate were pre-incubated in 445.5 μL of assay buffer (50 mM Tris-HCl pH 7.4, 0.05% Fatty acid-free-bovine serum albumin (BSA)) with 4.5 μL of inhibitor (at appropriate concentration in DMSO) or DMSO alone (to measure FAAH total activity) for 10 min at 37° C. The blank (no activity control) was prepared using 445.5 μL of assay buffer and 4.5 μL of DMSO without the 50 μg of total rat brain homogenate.
After 10 min of pre-incubation with test compounds, the reaction was started by adding of 50 μL of substrate and incubating for 30 min at 37° C. The substrate was prepared in assay buffer in order to achieve the final concentration of 1 μM arachidonoyl ethanolamide (Cayman Chemical N. 90050) and 0.6 nM anandamide [ethanolamine-1-^3H] (American Radiolabeled Chemicals Inc, ART. 0626, Conc. 1 mCi/mL, S.A. 60 Ci/mmol). The reaction was stopped by adding cold 1:1 CHCl3/MeOH. After 10 min of centrifugation (845×g at 4° C.) 600 μL of aqueous phase were transferred into scintillation vials previously filled with 3 mL of scintillation fluid (Ultima Gold™, Perkin Elmer Inc., Cat. 6013329). Radioactivity was measured by liquid scintillation counting (MicroBeta2 LumiJET Perkin Elmer Inc.).
as §1

The nature of series [3]: Pharmacokinetic experiment in cannulated Sprague-Dawley rats (PO and IV). The conditions noted are these: plasma, rat; for bioavailability: PO 10 mg/kg vs IV 3 mg/kg, read-out: Oral bioavailability (F %). The series is classed as in vivo. Here is the method:
Pharmacokinetic Experiment and Analysis
Compounds were administered orally (PO) and intravenously (IV) to cannulated Sprague-Dawley rats at 10 and 3 mg/kg, respectively. Vehicle was: PEG400/Tween 80/Saline solution at 10/10/80 (% in volume), respectively. Three animals per dose were treated. Blood samples at 0, 15, 30, 60, 120, 240, 480 and 1440 min after administration were collected for PO arm. Blood samples at 0, 5, 15, 30, 60, 120 and 240 min after administration were collected for IV arm. Plasma was separated from blood by centrifugation for 15 min at 3500 rpm a 4° C., collected in a Eppendorf tube and frozen (−80° C.). Control animals treated with vehicle only were also included in the experimental protocol.
Preparation of Samples, Standard Curve and QC Samples for UPLC-MS Analysis
Samples were thawed in an ice bath and after a short centrifugation transferred (50 μL) into a 96-deepwell plate and added with 150 μL of acetonitrile spiked with 200 nM Warfarin (the Internal Standard, I.S.). After agitation (3 min) the plate was centrifuged at 3000 g for 10 min at 4° C. 80 μL of supernatant was then transferred in a 96-well plate and added with 80 μL of water. Standard compound was spiked in neat solvent (PBS pH 7.4 added with 10% acetonitrile) to prepare a calibration curve over the 1 nM-10 μM range. Three quality controls (QCs) samples were also prepared spiking the compound in blank rat plasma to final 20, 200 and 2000 nM concentrations. Calibrators and QCs were crashed with acetonitrile spiked with the I.S. as described for the plasma samples. Dosing solutions, previously diluted 2000 fold in the neat solvent were also included in the samples and tested.
Compounds plasma levels were monitored on a Xevo TQ UPLC-MS/MS system (Waters, Milford USA), using the calibration curve and the internal standard (Warfarin). Chromatography was carried out on a Acquity BEH C18 column (2.1×50 mmID, 1.7 m particle size, Waters, Milford USA). Flow rate was 0.5 mL/min. The mobile phase was (A) H2O/0.1% formic acid; (B) MeCN/0.1% formic acid. A linear gradient was applied from 5 to 100% B in 2 min. 3 μL of each sample were loaded on column. MS parameters and multiple reaction monitoring (MRM) transitions were carefully tuned for each compound. Plasma levels data were analyzed using PKSolutions excel application (Summit Research Service, USA) to derive the most important pharmacokinetic parameters.
The oral bioavailability (F %) data, and the Area Under the Curve (AUC) data (ng×min/mL) corresponding to the IV (3 mg/kg) and PO (10 mg/kg) dose of selected compounds described in the Examples are reported in Table 3. Their F % data are in the range from 35 to 87.

A short description of series [4]: Aqueous kinetic solubility assay. To be noted: phosphate buffered saline, aqueous buffer, kinetic from dmso stock, PBS pH 7.4, target 250 μM, 2.5% DMSO, 25° C. The series is classed as physicochemical. Here is the method:
Aqueous Kinetic Solubility Assay
The aqueous kinetic solubility was determined from a 10 mM DMSO stock solution of test compound in Phosphate Buffered Saline (PBS) at pH 7.4.
The study was performed by incubation of an aliquot of 10 mM DMSO stock solution in PBS (pH 7.4) at a target concentration of 250 μM resulting in a final concentration of 2.5% DMSO. The incubation was carried out under shaking at 25° C. for 24 h followed by centrifugation. The supernatant was analyzed by UPLC/MS for the quantification of dissolved compound by UV at a specific wavelength (215 nm).
The aqueous kinetic solubility (in μM) was calculated by dividing the peak area of the supernatant by the peak area of the test compound reference and further multiplied by the concentration of the test compound reference and dilution factor.
The UPLC/MS analyses were performed on a Waters ACQUITY UPLC/MS system consisting of a SQD (Single Quadrupole Detector) Mass Spectrometer equipped with an Electrospray Ionization interface and a Photodiode Array Detector. The PDA range was 210-400 nm. The analyses were run on an ACQUITY UPLC BEH C18 column (50×2.1 mmID, particle size 1.7 m) with a VanGuard BEH C18 pre-column (5×2.1 mmID, particle size 1.7 μm). The mobile phase was 10 mM NH4OAc in H2O at pH 5 adjusted with AcOH (A) and 10 mM NH4OAc in MeCN—H2O (95:5) at pH 5 (B). Electrospray ionization in positive and negative mode was applied in the mass scan range 100-500 Da.

Setting [5] is: IV, 3 mg/kg, read-out: AUC IV (3 mg/kg) (converted).
[6] abbreviates: PO, 10 mg/kg, read-out: AUC PO (10 mg/kg) (converted).

In brackets after ≈: the same amount, converted by molar mass. Read-outs that look alike come from different tables or passages of the source.

Sequence of human FAAH-1 (O00519 whole entry): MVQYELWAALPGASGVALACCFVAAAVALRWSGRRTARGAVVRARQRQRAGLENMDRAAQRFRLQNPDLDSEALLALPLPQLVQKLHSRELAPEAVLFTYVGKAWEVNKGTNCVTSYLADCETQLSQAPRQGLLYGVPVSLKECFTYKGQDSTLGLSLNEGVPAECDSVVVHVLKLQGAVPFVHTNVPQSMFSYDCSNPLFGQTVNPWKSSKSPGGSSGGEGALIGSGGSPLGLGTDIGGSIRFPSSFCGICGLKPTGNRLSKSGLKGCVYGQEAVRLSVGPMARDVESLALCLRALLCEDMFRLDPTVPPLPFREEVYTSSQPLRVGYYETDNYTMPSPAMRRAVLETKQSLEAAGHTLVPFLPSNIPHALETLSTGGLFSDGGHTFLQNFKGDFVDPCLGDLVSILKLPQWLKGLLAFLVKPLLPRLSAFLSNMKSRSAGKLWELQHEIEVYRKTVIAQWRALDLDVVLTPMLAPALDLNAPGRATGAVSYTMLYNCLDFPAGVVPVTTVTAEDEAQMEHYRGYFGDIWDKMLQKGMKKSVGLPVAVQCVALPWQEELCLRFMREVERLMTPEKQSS
Sequence of Rat FAAH (P97612 whole entry): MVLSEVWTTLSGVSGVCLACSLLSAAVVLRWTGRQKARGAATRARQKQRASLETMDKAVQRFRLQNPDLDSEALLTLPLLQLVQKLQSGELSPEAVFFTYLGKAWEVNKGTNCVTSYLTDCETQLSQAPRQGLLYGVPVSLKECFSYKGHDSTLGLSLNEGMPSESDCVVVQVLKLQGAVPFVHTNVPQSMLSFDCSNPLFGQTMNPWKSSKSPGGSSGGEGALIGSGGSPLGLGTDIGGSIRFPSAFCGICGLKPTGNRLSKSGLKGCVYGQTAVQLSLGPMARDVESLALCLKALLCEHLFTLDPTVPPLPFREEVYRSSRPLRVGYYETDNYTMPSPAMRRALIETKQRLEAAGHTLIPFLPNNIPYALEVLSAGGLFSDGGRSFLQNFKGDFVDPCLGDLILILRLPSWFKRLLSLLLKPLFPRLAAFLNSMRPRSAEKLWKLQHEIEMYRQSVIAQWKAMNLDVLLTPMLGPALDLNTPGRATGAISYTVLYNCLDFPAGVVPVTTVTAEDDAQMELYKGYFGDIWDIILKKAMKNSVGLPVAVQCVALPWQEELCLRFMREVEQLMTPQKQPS

Consider `NC(=O)c1cccc(-c2cc(F)cc(OC(=O)NC3CCCCC3)c2)c1` [Example 12, [3-(3-Carbamoylphenyl)-5-fluoro-phenyl] N-cyclohexylcarbamate], for which the IC50 in series [1] worked out at 0.87 nM; in series [2], 0.23 nM.

`NC(=O)c1cccc(-c2cccc(OC(=O)NC3CCCCC3)c2)c1` [[drawing 135] comparison compound, reference compound]: in series [3], the bioavailability was found to be 5%. Besides, the AUC in series [3] (setting [5]) was 2560 ng·h/mL; in series [3] (setting [6]), 446 ng·h/mL. Further, the kinetic solubility at 24 h in series [4] came out at 1 µM (≈ 0.338 µg/mL).

On to `NC(=O)c1cccc(-c2cccc(OC(=O)NC3CCC3)c2)c1` [[drawing 131] comparison compound, reference compound], for which the bioavailability in series [3] worked out at 39%. The AUC in series [3] (setting [5]) was 891 ng·h/mL; in series [3] (setting [6]) it was 1160 ng·h/mL. This compound returned a solubility (kinetic) at 24 h in series [4] of 6 µM (≈ 1.86 µg/mL).

As for `CNC(=O)c1cccc(-c2cccc(OC(=O)NC3CCCCC3)c2)c1` [[drawing 127] comparison compound, reference compound], the bioavailability in series [3] worked out at 30%. Further, the AUC is 1520 ng·h/mL in series [3] (setting [5]) and 1500 ng·h/mL in series [3] (setting [6]). This compound also registered a solubility (kinetic) at 24 h in series [4] of 18 µM (≈ 6.34 µg/mL).

Consider `NC(=O)c1cccc(-c2cc(OC(=O)NC3CCCC3)ccc2F)c1` [Example 5, [3-(3-carbamoylphenyl)-4-fluoro-phenyl] N-cyclopentylcarbamate], for which the IC50 in series [1] amounted to 0.84 nM; in series [2] it was 2.9 nM.

Take `CNC(=O)c1cccc(-c2cc(OC(=O)NC3CCC3)ccc2F)c1` [Example 6, [4-fluoro-3-[3-(methylcarbamoyl)phenyl]phenyl] N-cyclobutylcarbamate]: the IC50 was determined as 6.6 nM in series [1] and 5.1 nM in series [2]. This compound gave a solubility (kinetic) at 24 h in series [4] of 183 µM (≈ 62.7 µg/mL).

Take `NC(=O)c1cccc(-c2cc(OC(=O)NC3CCCCC3)ccc2OC(F)F)c1` [Example 8, [3-(3-carbamoylphenyl)-4-(difluoromethoxy)phenyl] N-cyclohexylcarbamate]: in series [3], the bioavailability came out at 35%. Also, the AUC is 2110 ng·h/mL in series [3] (setting [5]) and 2430 ng·h/mL in series [3] (setting [6]). For the same compound, the IC50 was found to be 8.2 nM in series [1] and 1.4 nM in series [2]. In series [4], this compound yielded a kinetic solubility at 24 h of 44 µM (≈ 17.8 µg/mL).

Turning to `CNC(=O)c1cccc(-c2cc(OC(=O)NC3CCCC3)ccc2F)c1` [Example 4, [4-fluoro-3-[3-(methylcarbamoyl)phenyl]phenyl] N-cyclopentylcarbamate], the IC50 in series [1] came out at 2.9 nM; in series [2], 3.9 nM. Besides, in series [4], the kinetic solubility at 24 h was 96 µM (≈ 34.2 µg/mL).

Take `NS(=O)(=O)c1cccc(-c2cc(OC(=O)NC3CCCCC3)ccc2OC(F)F)c1` [Example 10, [4-(difluoromethoxy)-3-(3-sulfamoylphenyl)phenyl] N-cyclohexylcarbamate]: the half-maximal inhibitory concentration (IC50) in series [1] was determined as 9.2 nM; in series [2] it was 8.2 nM.

For the compound `CS(=O)(=O)c1cccc(-c2cc(OC(=O)NC3CCCCC3)ccc2OC(F)F)c1` [Example 11, [4-(difluoromethoxy)-3-(3-methylsulfonylphenyl)phenyl] N-cyclohexylcarbamate], the IC50 is 6.5 nM in series [1] and 2.9 nM in series [2]. Besides, the kinetic solubility at 24 h in series [4] came to 12 µM (≈ 5.27 µg/mL).

For the compound `CS(=O)(=O)c1cccc(-c2cc(OC(=O)NC3CCCCC3)ccc2F)c1` [Example 7, [4-Fluoro-3-(3-methylsulfonylphenyl)phenyl] N-cyclohexylcarbamate], the IC50 in series [1] came to 4.9 nM; in series [2] it was 8.9 nM.

In the case of `NC(=O)c1cccc(-c2cccc(OC(=O)NC3CCCCC3)c2F)c1` [Example 13, [3-(3-Carbamoylphenyl)-2-Fluoro-Phenyl] N-Cyclohexylcarbamate], the results for the IC50 in series [1] and in series [2] were 0.89 nM and 1.9 nM, respectively.

With `NS(=O)(=O)c1cccc(-c2cccc(OC(=O)NC3CCCCC3)c2)c1` [[drawing 129] comparison compound, reference compound], in series [3], the bioavailability was determined as 21%. In addition, the AUC was 725 ng·h/mL in series [3] (setting [5]) and 502 ng·h/mL in series [3] (setting [6]). Besides, the solubility (kinetic) at 24 h in series [4] worked out at 7 µM (≈ 2.62 µg/mL).
